Data published in patent US20240050428A1 (Cullgen (Shanghai), Inc., priority 2020, published 2024).
Where two headings read alike, the source gives them in different places.

Tests used:
[1] = system: MV4;11 cells; assay: Cell viability assay (CellTiter-Glo) in MV4;11 cells, alone or with gilteritinib; format: cell-based; conditions: Homo sapiens, MV4;11 cells, CellTiter-Glo, read-out: MV4
[2] = system: MOLM-13 cells; assay: Cell viability assay (CellTiter-Glo) in MOLM-13 cells, alone or with gilteritinib; format: cell-based; conditions: Homo sapiens, MOLM-13 cells, CellTiter-Glo
[3] = MV4-11, 72 h, compound alone (without gilteritinib), three days, 11 IC50
[4] = MV4-11, 72 h, compound with gilteritinib 10 nM, three days, 11 IC50 gilteritinib
[5] = MOLM-13, 72 h, compound alone (without gilteritinib), three days, read-out: MOLM-13 IC50
[6] = MOLM-13, 72 h, compound with gilteritinib 20 nM, three days, read-out: MOLM-13 IC50 gilteritinib
[7] = MV4-11, 72 h, with gilteritinib 10 nM, three days, 11 IC50 gilteritinib
[8] = MOLM-13, 72 h, with gilteritinib 20 nM, three days, read-out: MOLM-13 IC50 gilteritinib
[9] = 72 h, compound alone (without gilteritinib), three days, 11 IC50
[10] = 72 h, compound with gilteritinib 10 nM, three days, 11 IC50 gilteritinib
[11] = 72 h, compound alone (without gilteritinib), three days, read-out: MOLM-13 IC50
[12] = 72 h, compound with gilteritinib 20 nM, three days, read-out: MOLM-13 IC50 gilteritinib
[13] = MV4-11, 72 h, without gilteritinib, 3 days, 11 IC50
[14] = MOLM-13, 72 h, with 20 nM gilteritinib, 3 days, read-out: MOLM-13 IC50 gilteritinib
[15] = MOLM-13, 72 h, without gilteritinib, 3 days, read-out: MOLM-13 IC50

Row | Structure (SMILES) | IC50 [1, 3] | IC50 [2, 5] | IC50 [1, 7] | IC50 [2, 8] | other results
1 | Cn1ncc2c(-c3cn([C@H]4C[C@H](CNc5ccc6c(c5)C(=O)N(C5CCC(=O)NC5=O)C6=O)C4)nc3C3CC3)nccc21 (stereo partly drawn) [GS-611, 5-(((trans-3-(3-Cyclopropyl-4-(1-methyl-1H-pyrazolo[4,3-c]pyridin-4-yl)-1H-pyrazol-1-yl)cyclobutyl)methyl)amino)-2-(2,6-dioxopiperidin-3-yl)isoindoline-1,3-dione] | < 10 nM | < 10 nM | – | – | IC50 [1, 4]: < 10 nM; IC50 [2, 6]: < 10 nM
2 | COc1ccnc(-c2cn([C@H]3C[C@H](CNc4ccc5c(c4)C(=O)N(C4CCC(=O)NC4=O)C5=O)C3)nc2C2CC2)c1 (stereo partly drawn) [GS-254, 5-(((trans-3-(3-Cyclopropyl-4-(4-methoxypyridin-2-yl)-1H-pyrazol-1-yl)cyclobutyl)methyl)amino)-2-(2,6-dioxopiperidin-3-yl)isoindoline-1,3-dione] | 10 to 100 nM | 10 to 100 nM | < 10 nM | < 10 nM | –
3 | O=C1CCC(N2Cc3c(Nc4ccnc(Nc5cccc(N6CCC(N7CCCCC7)CC6)c5)n4)cccc3C2=O)C(=O)N1 (stereo not shown) [GS-094, 3-(4-((2-((3-([1,4′-Bipiperidin]-1′-yl)phenyl)amino)pyrimidin-4-yl)amino)-1-oxoisoindolin-2-yl)piperidine-2,6-dione] | > 1000 nM | > 1000 nM | > 1000 nM | > 1000 nM | –
4 | CN1C[C@H]2C[C@@H]1CN2c1ccc2ncc(-c3cnn(C4CC(CCCNc5ccc6c(c5)C(=O)N(C5CCC(=O)NC5=O)C6=O)C4)c3)nc2c1 (stereo partly drawn) [GS-395, 2-(2,6-Dioxopiperidin-3-yl)-5-((3-(3-(4-(7-((1R,4R)-5-methyl-2,5-diazabicyclo[2.2.1]heptan-2-yl)quinoxalin-2-yl)-1H-pyrazol-1-yl)cyclobutyl)propyl)amino)isoindoline-1,3-dione] | > 1000 nM | > 1000 nM | 10 to 100 nM | 10 to 100 nM | –
5 | O=C(CNc1cccc(N2CCC(n3cc(-c4cnc5ccccc5n4)cn3)CC2)c1)NCc1scc2c1CN(C1CCC(=O)NC1=O)C2=O (stereo not shown) [GS-087, N-((5-(2,6-dioxopiperidin-3-yl)-4-oxo-5,6-dihydro-4H-thieno[3,4-c]pyrrol-1-yl)methyl)-2-((3-(4-(4-(quinoxalin-2-yl)-1H-pyrazol-1-yl)piperidin-1-yl)phenyl)amino)acetamide] | < 10 nM | < 10 nM | < 10 nM | < 10 nM | –
6 | O=C1CCC(N2C(=O)c3ccc(NCCCCCCn4cc(-c5ccccc5)cn4)cc3C2=O)C(=O)N1 (stereo not shown) [GS-496, 2-(2,6-dioxopiperidin-3-yl)-5-((6-(4-phenyl-1H-pyrazol-1-yl)hexyl)amino)isoindoline-1,3-dione] | – | – | – | – | IC50 [1, 9]: 100 to 1000 nM; IC50 [1, 10]: 10 to 100 nM; IC50 [2, 11]: 100 to 1000 nM; IC50 [2, 12]: 10 to 100 nM
7 | CC(C)c1nc2ccccc2nc1-c1cnn(CCCCCCNc2ccc3c(c2)C(=O)N(C2CCC(=O)NC2=O)C3=O)c1 (stereo not shown) [GS-523, 2-(2,6-Dioxopiperidin-3-yl)-5-((6-(4-(3-isopropylquinoxalin-2-yl)-1H-pyrazol-1-yl)hexyl)amino)isoindoline-1,3-dione] | – | – | – | – | IC50 [1, 9]: > 1000 nM; IC50 [1, 10]: 100 to 1000 nM; IC50 [2, 11]: > 1000 nM; IC50 [2, 12]: 100 to 1000 nM
8 | O=C1CCC(N2C(=O)c3ccc(NCCCCCC(=O)N4CCC(n5cc(C6CC6)cn5)CC4)cc3C2=O)C(=O)N1 (stereo not shown) [GS-064, 5-((6-(4-(4-Cyclopropyl-1H-pyrazol-1-yl)piperidin-1-yl)-6-oxohexyl)amino)-2-(2,6-dioxopiperidin-3-yl)isoindoline-1,3-dione] | – | – | – | – | IC50 ([1]; MV4-11, 72 h, with 10 nM gilteritinib, 3 days, 11 IC50 gilteritinib): 27 nM; IC50 [1, 13]: 349 nM; IC50 [2, 14]: 600 nM; IC50 [2, 15]: 520 nM
9 | C[C@@H]1CN(c2ccc3ncc(-c4cnn([C@H]5C[C@H](CCCNc6ccc7c(c6)C(=O)N(C6CCC(=O)NC6=O)C7=O)C5)c4)nc3c2)CCN1C (stereo partly drawn) [GS-581, 5-((3-(trans-3-(4-(7-((R)-3,4-Dimethylpiperazin-1-yl)quinoxalin-2-yl)-1H-pyrazol-1-yl)cyclobutyl)propyl)amino)-2-(2,6-dioxopiperidin-3-yl)isoindoline-1,3-dione] | > 1000 nM | > 1000 nM | – | – | IC50 [1, 4]: 10 to 100 nM; IC50 [2, 6]: < 10 nM
10 | O=C(CC1CCC(N2CCC(n3cc(-c4cnc5ccccc5n4)cn3)CC2)CC1)NCc1ccc2c(c1)CN(C1CCC(=O)NC1=O)C2=O (stereo not shown) [GS-089, N-((2-(2,6-dioxopiperidin-3-yl)-1-oxoisoindolin-5-yl)methyl)-2-(4-(4-(4-(quinoxalin-2-yl)-1H-pyrazol-1-yl)piperidin-1-yl)cyclohexyl)acetamide] | > 1000 nM | > 1000 nM | > 1000 nM | > 1000 nM | –
11 | O=C1CCC(N2Cc3cc(CNC(=O)Nc4cccc(N5CCC(c6ccccc6)CC5)c4)ccc3C2=O)C(=O)N1 (stereo not shown) [GS-514, 1-((2-(2,6-Dioxopiperidin-3-yl)-1-oxoisoindolin-5-yl)methyl)-3-(3-(4-phenylpiperidin-1-yl)phenyl)urea] | – | – | – | – | IC50 [1, 9]: < 10 nM; IC50 [1, 10]: < 10 nM; IC50 [2, 11]: < 10 nM; IC50 [2, 12]: < 10 nM
12 | C[C@H]1CN(c2ccc3ncc(-c4cnn([C@H]5C[C@H](CCCNc6ccc7c(c6)C(=O)N(C6CCC(=O)NC6=O)C7=O)C5)c4)nc3c2)CCN1 (stereo partly drawn) [GS-576, 2-(2,6-Dioxopiperidin-3-yl)-5-((3-(trans-3-(4-(7-((S)-3-methylpiperazin-1-yl)quinoxalin-2-yl)-1H-pyrazol-1-yl)cyclobutyl)propyl)amino)isoindoline-1,3-dione] | 10 to 100 nM | 10 to 100 nM | – | – | IC50 [1, 4]: < 10 nM; IC50 [2, 6]: < 10 nM
13 | Cc1cccc(-c2cnn([C@H]3C[C@H](CCCNc4ccc5c(c4)C(=O)N(C4CCC(=O)NC4=O)C5=O)C3)c2)n1 (stereo partly drawn) [GS-584, 2-(2,6-Dioxopiperidin-3-yl)-5-((3-(trans-3-(4-(6-methylpyridin-2-yl)-1H-pyrazol-1-yl)cyclobutyl)propyl)amino)isoindoline-1,3-dione] | 10 to 100 nM | 100 to 1000 nM | – | – | IC50 [1, 4]: 10 to 100 nM; IC50 [2, 6]: < 10 nM

Second part, led by results:

Row | IC50 [1, 3] | IC50 [2, 5] | IC50 [1, 7] | IC50 [2, 8] | Structure (SMILES) | other results
14 | 10 to 100 nM | 10 to 100 nM | < 10 nM | < 10 nM | O=C1CCC(N2C(=O)c3ccc(NCCC4CC(C(=O)N5CCC(n6cc(-c7cnc8ccccc8n7)cn6)CC5)C4)cc3C2=O)C(=O)N1 (stereo not shown) [GS-205, 2-(2,6-Dioxopiperidin-3-yl)-5-((2-(3-(4-(4-(quinoxalin-2-yl)-1H-pyrazol-1-yl)piperidine-1-carbonyl)cyclobutyl)ethyl)amino)isoindoline-1,3-dione] | –
15 | 100 to 1000 nM | > 1000 nM | 10 to 100 nM | 10 to 100 nM | O=C1CCC(N2C(=O)c3ccc(NCC4CC(C(=O)N5CCC(n6cc(-c7cnc8ccccc8n7)cn6)CC5)C4)cc3C2=O)C(=O)N1 (stereo not shown) [GS-192, 2-(2,6-Dioxopiperidin-3-yl)-5-(((3-(4-(4-(quinoxalin-2-yl)-1H-pyrazol-1-yl)piperidine-1-carbonyl)cyclobutyl)methyl)amino)isoindoline-1,3-dione] | –
16 | 100 to 1000 nM | 100 to 1000 nM | – | – | O=C1CCC(N2C(=O)c3ccc(NCCCCC(=O)N4CCC(n5cc(-c6cnc7ccc(C8=CCNCC8)cc7n6)cn5)CC4)cc3C2=O)C(=O)N1 (stereo not shown) [GS-544, 2-(2,6-Dioxopiperidin-3-yl)-5-((5-oxo-5-(4-(4-(7-(1,2,3,6-tetrahydropyridin-4-yl)quinoxalin-2-yl)-1H-pyrazol-1-yl)piperidin-1-yl)pentyl)amino)isoindoline-1,3-dione] | IC50 [1, 4]: < 10 nM; IC50 [2, 6]: < 10 nM
17 | > 1000 nM | > 1000 nM | > 1000 nM | 100 to 1000 nM | O=C1CCC(N2C(=O)c3ccc(NCCCCCC(=O)N4CC(Oc5ccccc5)C4)cc3C2=O)C(=O)N1 (stereo not shown) [GS-334, 2-(2,6-Dioxopiperidin-3-yl)-5-((6-oxo-6-(3-phenoxyazetidin-1-yl)hexyl)amino)isoindoline-1,3-dione] | –
18 | 100 to 1000 nM | > 1000 nM | < 10 nM | < 10 nM | O=C1CCC(N2C(=O)c3ccc(NCCCCCC(=O)N4CCC(n5cc(-c6ccc7cccc(Br)c7n6)cn5)CC4)cc3C2=O)C(=O)N1 (stereo not shown) [GS-052, 5-((6-(4-(4-(8-Bromoquinolin-2-yl)-1H-pyrazol-1-yl)piperidin-1-yl)-6-oxohexyl)amino)-2-(2,6-dioxopiperidin-3-yl)isoindoline-1,3-dione] | –
19 | < 10 nM | < 10 nM | < 10 nM | < 10 nM | O=C1CCC(N2C(=O)c3ccc(NCCCCCC(=O)N4CCC(c5cnc6cccc(Br)c6n5)CC4)cc3C2=O)C(=O)N1 (stereo not shown) [GS-060, 5-((6-(4-(8-Bromoquinoxalin-2-yl)piperidin-1-yl)-6-oxohexyl)amino)-2-(2,6-dioxopiperidin-3-yl)isoindoline-1,3-dione] | IC50 [1, 13]: < 1 nM; IC50 [2, 14]: 0.06 nM; IC50 [2, 15]: 3.7 nM
